Data on 21 compounds can be found in patent publication US5106835A, “Renin inhibitors” (American Cyanamid Company, priority 1990, dated 1992).

For the assay, the target named is T1, human kidney renin (Homo sapiens, UniProt P00797).
T1 construct: Human renin was prepared from human kidney; from tissue; host or cells: human kidney
T1 sequence (P00797 67-406): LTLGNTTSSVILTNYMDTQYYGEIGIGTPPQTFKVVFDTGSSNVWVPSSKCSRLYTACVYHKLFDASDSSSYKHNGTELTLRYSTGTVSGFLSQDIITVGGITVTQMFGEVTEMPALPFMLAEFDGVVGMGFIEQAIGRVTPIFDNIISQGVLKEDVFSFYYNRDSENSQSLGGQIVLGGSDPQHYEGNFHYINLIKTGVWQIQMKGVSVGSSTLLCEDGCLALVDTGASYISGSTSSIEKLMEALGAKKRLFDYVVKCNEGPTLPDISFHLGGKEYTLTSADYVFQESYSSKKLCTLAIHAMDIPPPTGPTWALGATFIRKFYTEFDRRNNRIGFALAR
Put plainly: Radioimmunoassay screen for renin inhibitors (angiotensin I generation, then quantitation by radioimmunoassay). To be noted: for IC50: human kidney renin, purified human plasma angiotensinogen, maleate buffer pH 6.0, 1 hour at 37° C., read-out: IC50 Molar Concentration. Type of assay: biochemical. Here is the method: Radioimmunoassay Screen For Renin Inhibitors
The in vitro method for the screening of anti-renin compounds involves, first, angiotensin I generation, and second, the quantitation of the angiotensin I produced by radioimmunoassay.
The incubation medium consisted of 20 μl of purified human plasma angiotensinogen (1); 40 μl of human kidney renin (2); 5 μl of phenylmethylsulfonyl fluoride; 10 μl of disodium EDTA (10 mM); 10 μl of antirenin compound (5×10^-3, 5×10^-4, 5×10^-5) in dimethylformamide, or ethanol and a suitable amount of maleate buffer (77mM, pH 6.0) to make a final volume of 500 μl. The reaction mixture was incubated for 1 hour at 37° C. and the enzymatic reaction was stopped by placing the tube in ice-cold water. The angiotension I generated during the incubation was measured by a radioimmunoassay plasma renin activity kit (Clinical Assays, Inc.).
Radioimmunoassay Procedure
The incubation medium consisted of either 100 μl aliquots of the above reaction mixture or a standard amount of angiotensin I; 1000 μl of phosphate buffer (100 mM, pH7.6) and 100 μl of (^125 I)angiotensin in a gamma-coat, tube. After three hours of incubation at room temperature, the tubes were decanted, and the radioactivity of each tube was determined in a gamma counter. Duplicate determinations were performed for each incubation. The results were expressed in ng of angiotensin I generated per ml of generation medium per hour of incubation (ng/AI/ml/hr), and the % of inhibition was obtained by the following: % inhibition= [formula]
The results of this test on representative compounds of this invention appear in Table I, expressed as an IC50.
(1) The human plasma angiotensinogen derived from the blood of a person receiving oral contraceptive pills was purified by chromatography on a pepstatin-aminohexyl-agarose column.
(2) Human renin was prepared from human kidney.

For `CC(C)C[C@@H](C=O)NC(=O)C(NC(=O)[C@H](Cc1ccccc1)NC(=O)OCc1ccccc1)OC(C)C` (stereo partly drawn) [N-[(Phenylmethoxy)carbonyl]-L-phenylalanyl-N-(S)-1-formyl-3-methylbutyl]-L-2-(1-methylethoxy)glycinamide], the IC50 worked out at 10000 nM.
Regarding `CC(C)COC(NC(=O)[C@H](Cc1ccccc1)NC(=O)OCc1ccccc1)C(=O)N[C@H](C=O)Cc1ccccc1` (stereo partly drawn) [N-[(Phenylmethoxy)carbonyl]-L-phenylalanyl-N-[(S)-1-formyl-2-phenylethyl]-L-2-(2-methylpropoxy)glycinamide], the “% Renin Inhibition” value by setting is: (Molar Concentration 1 × 10^-4) 66%; (Molar Concentration 1 × 10^-5) 59%.
Consider `CC(C)CO[C@H](NC(=O)[C@H](Cc1ccccc1)NC(=O)OCc1ccccc1)C(=O)N[C@H](C=O)CC(C)C` [N-[(Phenylmethoxy)carbonyl]-L-phenylalanyl-N-[(S)-1-formyl-3-methylbutyl]-L-2-(2-methylpropoxy)glycinamide], for which the “% Renin Inhibition” value (Molar Concentration 1 × 10^-4) came to 70% and the “% Renin Inhibition” value (Molar Concentration 1 × 10^-5) stood at 50%.
On to `CC(C)COC(NC(=O)[C@H](Cc1ccccc1)NC(=O)OCc1ccccc1)C(=O)N[C@@H](CC1CCCCC1)[C@@H](O)c1nccs1` (stereo partly drawn) [N-[(Phenylmethoxy)carbonyl]-phenylalanyl-L-2-(2-methylpropox] [N-[(Phenylmethoxy)carbonyl]-L-phenylalanyl-L-2-(2-methylpropoxy)glycyl]-(1R,2S)-2-amino-3-cyclohexyl-1-(2-thiazolyl)propan-1-ol], for which the IC50 amounted to 87 nM.
Take `CC(C)CO[C@@H](NC(=O)[C@H](Cc1ccccc1)NC(=O)OCc1ccccc1)C(=O)N[C@@H](Cc1ccccc1)[C@@H](O)c1nccs1` [N-[N-(Benzyloxycarbonyl)-L-phenylalanyl-D-2-(2-methylpropoxy)glycyl]-(S)2-amino-3-phenyl-(R)1-(2-thiazoly)propan-1-ol]: the “% Renin Inhibition” value is, setting by setting: (Molar Concentration 1 × 10^-4) 74.6%; (Molar Concentration 1 × 10^-5) 69.2%; (Molar Concentration 1 × 10^-6) 41.0%.
In the case of `CC(C)C[C@H](NC(=O)C(NC(=O)[C@H](Cc1ccccc1)NC(=O)OCc1ccccc1)OC(C)C)[C@@H](O)c1nccs1` (stereo partly drawn) [N-[N-(Benzyloxycarbonyl)-L-phenylalanyl-L-2-(1-methylethoxy)glycyl]-(S)2-amino-4-methyl-(R)1-(2-thiazolyl)pentan-1-ol], the IC50 stood at 280 nM.
Regarding `CC(C)COC(NC(=O)[C@H](Cc1ccccc1)NC(=O)OCc1ccccc1)C(=O)N[C@@H](CC(C)C)[C@@H](O)c1ncnn1C` (stereo partly drawn) [N-[N-(Benzyloxycarbonyl)-L-phenylalanyl-L-2-(2-methylpropoxy)glycl]-(S)2-amino-4-methyl(R)1-(1-methyl-1H-1,2,4-triazol-5-yl)pentan-1-ol], the “% Renin Inhibition” value (Molar Concentration 1 × 10^-4) amounted to 32%.
As to `CC(C)CO[C@H](NC(=O)[C@H](Cc1ccccc1)NC(=O)OCc1ccccc1)C(=O)N[C@@H](Cc1ccccc1)[C@@H](O)c1nccs1` [N-[N-(Benzyloxycarbonyl)-L-phenylalanyl-L-2-(2-methylpropxy)glycyl]-(S)2-amino-3-phenyl-(R)1-(2-thiazolyl)propan-1-ol], the IC50 amounted to 470 nM. In addition, the “% Renin Inhibition” value (Molar Concentration 1 × 10^-4) was 85.0%. Further, for the setting “Molar Concentration 1 × 10^-5”, the “% Renin Inhibition” value is listed as 84.6%. Further, the “% Renin Inhibition” value (Molar Concentration 1 × 10^-6) was 76.2%.
For `CC(C)C[C@H](NC(=O)C(NC(=O)[C@H](Cc1ccccc1)NC(=O)OCc1ccccc1)OC1CCCCC1)[C@@H](O)c1nccs1` (stereo partly drawn) [N-[N-(Benzyloxycarbonyl)-L-phenylalanyl-L-2-(cyclohexyloxy)glycyl]-(S)2-amino-4-methyl-(R)1-(2-thiazolyl)pentan-1-ol], the IC50 was determined as 8500 nM.
Turning to `CC(C)COC(NC(=O)OCc1ccccc1)C(=O)N[C@@H](CC1CCCCC1)[C@@H](O)c1ccccn1` (stereo partly drawn) [N-[N-(Phenylmethoxy)carbonyl-L-2-(2-methylpropoxy)glycyl]-(S)2-amino-3-cyclohexyl(R)1-(2-pyridinyl)propan-1-ol], the IC50 was 160 nM.
Turning to `CC(C)OC(NC(=O)[C@H](Cc1ccccc1)NC(=O)OCc1ccccc1)C(=O)N[C@@H](CC1CCCCC1)[C@@H](O)c1nccs1` (stereo partly drawn) [N-[N-(Phenylmethoxy)carbonyl-L-phenylalanyl-D-2-(1-methyleth] [N-[N-[(phenylmethoxy)carbonyl-L-phenylalanyl-D-2-(1-methylethoxy)glycyl](S)2-amino-3-cyclohexyl-(R)1-(2-thiazolyl)propan-1-ol], the IC50 was 8800 nM.
On to `CC(C)CO[C@@H](NC(=O)[C@H](Cc1ccccc1)NC(=O)OCc1ccccc1)C(=O)N[C@@H](CC1CCCCC1)[C@@H](O)c1ccccn1` [N-[N-(Phenylmethoxy)carbonyl-L-phenylalanyl-D-2-(2-methylpropoxy)glycyl]-(S)2-amino-3-cyclohexyl(R)1-(2-pyridinyl)propan-1-ol], for which the IC50 worked out at 29000 nM.
Turning to `CC(C)OC(NC(=O)[C@H](Cc1ccccc1)NC(=O)OCc1ccccc1)C(=O)N[C@@H](CC1CCCCC1)[C@@H](O)c1nccs1` (stereo partly drawn) [N-[N-(Phenylmethoxy)carbonyl-L-phenylalanyl-L-2-(1-methyleth] [N-[N-[(Phenylmethoxy)carbonyl-L-phenylalanyl-L-2-(1-methylethoxy)glycyl]-(S)2-amino-b 3-cyclohexyl-(R)1-(2-thiazolyl)propan-1-ol], the IC50 is 1 nM.
The same measure, in the same setting: the value for `CC(C)SC(NC(=O)[C@H](Cc1ccccc1)NC(=O)OCc1ccccc1)C(=O)N[C@@H](CC1CCCCC1)[C@@H](O)c1ccccn1` (stereo partly drawn) [N-[N-(Phenylmethoxy)carbonyl-L-phenylalanyl-L-2-(isopropylth] [N-[N-[(Phenylmethoxy)carbonyl]-L-phenylalanyl-L-2-(isopropylthio)glycyl]-(S)2-amino-3-cyclohexyl-(R)1-(2-pyridinyl)propan-1-ol] was 46 nM; that for `CC(C)SC(NC(=O)[C@H](Cc1ccccc1)NC(=O)OCc1ccccc1)C(=O)N[C@@H](CC1CCCCC1)[C@@H](O)c1ccccn1` (stereo partly drawn) [N-[N-(phenylmethoxy)carbonyl-L-phenylalanyl-D-2-(isopropylth] [N-[N[(phenylmethoxy)carbonyl]-L-phenylalanyl-D-2-(isopropylthio)glycyl]-(S)2-amino-3-cyclohexyl-(R)1-(2-pyridinyl)-propan-1-ol] was 16000 nM; that for `CC(C)C[C@H](NC(=O)[C@H](Cc1ccccc1)NC(=O)OC(C)(C)C)C(=O)N[C@@H](CC(C)C)[C@@H](O)c1cccs1` [N-[N-(tert-Butoxycarbonyl)-L-phenylalanyl-L-leucyl]-(S)2-amino-4-methyl-(R)1-(2-thienyl)-pentan-1-ol] was 4500 nM.
For the compound `CC(C)OC(NC(=O)[C@H](Cc1ccccc1)NC(=O)OCc1ccccc1)C(=O)N[C@@H](CC1CCCCC1)[C@@H](O)c1ccccn1` (stereo partly drawn) [N-[N-[ (Phenylmethoxy)carbonyl]-L-phenylalanyl-L-2-(1-methylethoxy)glycyl]-(S)2-amino-3-cyclohexyl-(R)1-(2-pyridinyl)propan-1-ol], the IC50 worked out at 24 nM.
As to `CC(C)C[C@H](NC(=O)C(NC(=O)[C@H](Cc1ccccc1)NC(=O)OCc1ccccc1)SC(C)C)[C@@H](O)c1nccs1` (stereo partly drawn) [N-[N-[(Phenylmethoxy)carbonyl-L-phenylalanyl-L-2-(isopropylthio)glycyl]-(S)2-amino-4-methyl-(R)1-(2-thiazaolyl)pentan-1-ol], the IC50 stood at 14000 nM.
Still for that read-out and setting: the value for `CC(C)O[C@@H](NC(=O)[C@H](Cc1ccccc1)NC(=O)OCc1ccccc1)C(=O)N[C@@H](CC1CCCCC1)[C@@H](O)c1ccccn1` [N-[N-[(Phenylmethoxy)carbonyl]-L-phenylalanyl-D-2-(1-methylethoxy)glycyl]-(S)2-amino-3-cyclohexyl-(R)1-(2-pyridinyl)propan-1-ol] was 1000 nM.
Consider `CC(C)C[C@H](NC(=O)C(NC(=O)[C@H](Cc1ccccc1)NC(=O)OCc1ccccc1)SC(C)C)[C@@H](O)c1nccs1` (stereo partly drawn) [N-[N-[(phenylmethoxy)carbonyl]-L-phenylalanyl-D-2-(isopropylthio)glycyl]-(S)2-amino-4-methyl-(R)1-(2-thiazolyl)pentan-1-ol], for which the “% Renin Inhibition” value (Molar Concentration 1 × 10^-4) was 25%.
Turning to `CC(C)C[C@H](NC(=O)[C@H](Cc1ccccc1)NC(=O)OC(C)(C)C)C(=O)N[C@@H](CC1CCCCC1)[C@@H](O)c1ccco1` [N-[N-tert-Butoxycarbonyl)-L-phenylalanyl-L-leucyl]-(S)2-amino-3-cyclohexyl-(R)1-(2-furanyl)propan-1-ol], the IC50 came out at 24 nM.
